Laboratory results from paper PMC8658026, “The N-Acetylglucosamine Kinase from Yarrowia lipolytica Is a Moonlighting Protein” (International Journal of Molecular Sciences, 2021).

Assays:
[1] = target: T1, YlNag5 (NAGA kinase) (Yarrowia lipolytica, UniProt Q6C584, F320S); assay: residual NAGA assay after incubation with extract; assay type: biochemical
T1 construct: gene YALI0_E20207g

[2] = target: T2, YlNag5 (NAGA kinase) (Yarrowia lipolytica, UniProt Q6C584, D214V); assay: residual NAGA assay after incubation with extract; assay type: biochemical
T2 construct: gene YALI0_E20207g
T2 sequence (Q6C584 entry or part of it D214V): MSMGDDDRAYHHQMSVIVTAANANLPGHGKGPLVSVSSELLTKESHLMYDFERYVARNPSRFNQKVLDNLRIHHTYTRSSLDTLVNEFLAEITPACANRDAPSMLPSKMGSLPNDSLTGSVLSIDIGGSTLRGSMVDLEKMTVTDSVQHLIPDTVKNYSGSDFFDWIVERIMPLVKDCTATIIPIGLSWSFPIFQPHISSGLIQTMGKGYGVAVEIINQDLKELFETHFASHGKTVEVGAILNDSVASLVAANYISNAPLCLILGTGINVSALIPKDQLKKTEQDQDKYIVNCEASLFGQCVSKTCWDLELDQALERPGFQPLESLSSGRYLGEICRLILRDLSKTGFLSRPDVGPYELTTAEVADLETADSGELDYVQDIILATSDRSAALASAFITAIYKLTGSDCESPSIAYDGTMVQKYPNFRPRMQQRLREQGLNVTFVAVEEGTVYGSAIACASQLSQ

T1 sequence (Q6C584 entry or part of it F320S): as the sequence (Q6C584 entry or part of it D214V) above, with V214D, F320S counted along it

## CC(=O)N[C@H]1C(O)O[C@H](CO)[C@@H](O)[C@@H]1O (some centres unmarked) [NAGA]
[1]
  residual NAGA assay after incubation with extract: strains expressing the F320S or D214V variants of YlNag5 exhibited low or moderate kinase activity
[2]
  residual NAGA assay after incubation with extract: strains expressing the F320S or D214V variants of YlNag5 exhibited low or moderate kinase activity
